Measurements reported in patent US20160229835A1, “NOVEL PYRIDYLOXYACETYL TETRAHYDROISOQUINOLINE COMPOUNDS USEFUL AS NAMPT INHIBITORS” (ELI LILLY AND COMPANY, priority 2013, published 2016).
Read-outs that look alike come from different tables or passages of the source.

How the values were obtained:
Format in all cases: cell-based
SW13 = test: Cell Proliferation Assay ±NA, SW13; settings: Homo sapiens, SW13, adrenal gland, treatment time 72 hr
Method: (§1) The purpose of this assay is to measure the ability of a compound to inhibit proliferation of endometrium, kidney, adrenal gland, and autonomic ganglia cancer cell lines dependent on the NAMPT-mediated NAD^+ formation in the presence or absence of NA (10 μM) in vitro. One day before the planned initiation of compound treatment portion of the assay, one vial of assay ready frozen cells is thawed, and the cells are grown overnight in the media as shown in Table 3 under 5% CO2 at 37° C. Then, the cell layer is briefly rinsed with 0.25% (w/v) Trypsin-0.038% (w/v) EDTA solution followed with the addition of 3.0 ml of Trypsin-EDTA solution. Once the cell layer is dispersed, 8.0 ml of complete growth medium (Table 3) is added and cells are aspirated by gently pipetting. The cell suspension is transferred to a centrifuge tube and centrifuged at 800-1000 rpm for 3-5 minutes. The supernatant is discarded using a vacuum pump. The cell pellet is suspended in a complete medium by gently pipetting. The cell numbers are counted and adjusted to the appropriate density (Table 3). […] The bottom of each plate is pasted with a white back seal and luminescence is recorded using a Flexstation 3 with the following settings: Luminescence and integration time of 500 ms.

NCI-H295 = test: Cell Proliferation Assay ±NA, NCI-H295; settings: NCI-H295, adrenal gland, treatment time 144 hr
Method: as §1

CHP-212 = test: Cell Proliferation Assay ±NA, CHP-212; settings: Homo sapiens, CHP-212, autonomic ganglia, treatment time 72 hr
Method: as §1

TGW = test: Cell Proliferation Assay ±NA, TGW; settings: autonomic ganglia, treatment time 48 hr
Method: as §1

GOTO = test: Cell Proliferation Assay ±NA, GOTO; settings: autonomic ganglia, treatment time 96 hr
Method: as §1

SNG-M = test: Cell Proliferation Assay ±NA, SNG-M; settings: endometrium, treatment time 72 hr
Method: as §1

KLE = test: Cell Proliferation Assay ±NA, KLE; settings: Homo sapiens, endometrium, treatment time 72 hr
Method: as §1

RL95-2 = test: Cell Proliferation Assay ±NA, RL95-2; settings: Homo sapiens, RL95-2, endometrium, treatment time 72 hr
Method: as §1

OS-RC-2 = test: Cell Proliferation Assay ±NA, OS-RC-2; settings: Homo sapiens, OS-RC-2, kidney, treatment time 72 hr
Method: as §1

SN12C = test: Cell Proliferation Assay ±NA, SN12C; settings: Homo sapiens, kidney, treatment time 72 hr
Method: as §1

Caki-1 = test: Cell Proliferation Assay ±NA, Caki-1; settings: Homo sapiens, Caki-1, kidney, treatment time 72 hr
Method: as §1

TK10 = test: Cell Proliferation Assay ±NA, TK10; settings: Homo sapiens, TK-10, TK10, kidney, treatment time 72 hr
Method: as §1

ACHN = test: Cell Proliferation Assay ±NA, ACHN; settings: Homo sapiens, kidney, treatment time 72 hr
Method: as §1

A498 = test: Cell Proliferation Assay ±NA, A498; settings: Homo sapiens, A498, kidney, treatment time 48 hr
Method: as §1

[1] = NA 0.0 μM, read-out: IC50 (μM) NA (0.0 μM)
[2] = NA 10 μM, read-out: IC50 (μM) NA (10 μM)

IC50 (SW13; [1]): 0.05 µM
IC50 (SW13; [2]): 0.02 µM
IC50 (NCI-H295; [1]): 0.1 µM
IC50 (NCI-H295; [2]): 0.06 µM
IC50 (ACHN; [1]): 0.11 µM
IC50 (ACHN; [2]): > 2 µM
Structure (SMILES): CC(C)(O)CS(=O)(=O)Nc1ccc2c(c1)CCN(C(=O)COc1cccnc1)C2 [Example 1, 2-Hydroxy-2-methyl-N-[2-[2-(3-pyridyloxy)acetyl]-3,4-dihydro-1H-isoquinolin-6-yl]propane-1-sulfonamide]
IC50 (CHP-212; [1]): 0.07 µM
IC50 (CHP-212; [2]): 0.07 µM
IC50 (TGW; [1]): 0.01 µM
IC50 (TGW; [2]): 0.01 µM
IC50 (GOTO; [1]): 0.02 µM
IC50 (GOTO; [2]): 0.02 µM
IC50 (SNG-M; [1]): 0.02 µM
IC50 (SNG-M; [2]): 0.02 µM
IC50 (KLE; [1]): 0.04 µM
IC50 (KLE; [2]): > 2 µM
IC50 (RL95-2; [1]): 0.02 µM
IC50 (RL95-2; [2]): 0.02 µM
IC50 (OS-RC-2; [1]): > 2 µM
IC50 (OS-RC-2; [2]): > 2 µM
IC50 (SN12C; [1]): 0.06 µM
IC50 (SN12C; [2]): 0.05 µM
IC50 (Caki-1; [1]): 0.13 µM
IC50 (Caki-1; [2]): 0.11 µM
IC50 (TK10; [1]): 0.22 µM
IC50 (TK10; [2]): 0.21 µM
IC50 (A498; [1]): 1.84 µM
IC50 (A498; [2]): > 2 µM
